Laboratory results published in PMC11257039, “VCP activator reverses nuclear proteostasis defects and enhances TDP-43 aggregate clearance in multisystem proteinopathy models” (The Journal of Clinical Investigation, 2024).
Values joined by “and” are separate entries in the source; they are usually repeats but may differ in a detail not shown here. Equal values may be shown once.

Columns and labels:
recombinant WT VCP [1] = molecular target: T1, recombinant WT VCP (Mus musculus, UniProt Q01853); assay: Kinase-Glo ATPase assay, recombinant WT VCP; format: biochemical; conditions: for ATP consumed: WT VCP no UN
T1 construct: in the full-length recombinant VCP; His (N); made in house; host or cells: Escherichia coli BL21-CodonPlus (DE3)-RIL
Method in brief: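 Mouse VCP (50 nM), alone or with 50 nM UFD1/NPLOC4, was incubated 1 h at 25 °C with 62.5 μM ATP and a range of compound concentrations in HEPES pH 7.5, 100 mM NaCl, 10 mM MgCl2, 2% DMSO. Remaining ATP was read by Kinase-Glo luminescence. Dose data were fit to a 3-parameter curve; ATP-varied data were fit to Michaelis-Menten.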

recombinant WT VCP [2] = molecular target: T1, recombinant WT VCP; assay: MESG-PNP (EnzCheck) phosphate release ATPase assay, WT VCP; format: biochemical; conditions: for ATPase activity v0/ET: 25 μM compound, replicate experiments
Method in brief: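 50 nM mouse WT VCP with 25 μM compound, 2% DMSO and varied ATP at 25°C; phosphate release followed by MESG-PNP absorbance at 360 nm for over 15 min against a phosphate standard curve. Initial rates from the linear portion, fitted to a 3-parameter dose curve or to Michaelis-Menten.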

[3] = tested on: WT HeLa cells expressing GFP-TDP-4FL; assay: Flow cytometry of GFP-TDP-4FL integrated fluorescence, WT HeLa; format: cell-based; conditions: for Integrated Fluorescence WT (Normalized to CHX): replicate values
Method in brief: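 Trypsinised cells resuspended in colorless DMEM with 2% FBS and analysed by flow cytometry. Integrated fluorescence taken as percent GFP-positive cells multiplied by GFP median fluorescence.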

[4] = tested on: WT HeLa cells expressing TDP-4FL; assay: Immunofluorescence of TDP-4FL inclusion morphology, WT HeLa; format: cell-based; conditions: MG132 17 h, then CHX with 5 μM UP109 4 h
Description: HeLa Cells were plated onto glass coverslips and transfected with TDP-4FL using Fugene HD for 24 hours. Cells were fixed with 4% paraformaldehyde (Electron Microscopy Sciences), permeabilized with 0.1% Triton-X (Thermo Fisher Scientific), and blocked with 2% FBS DPBS. Primary antibodies were diluted in 2% FBS DPBS. Cells were stained with 300 nM DAPI, and coverslips were mounted onto glass slides using ProLong Glass Antifade Mountant (Thermo Fisher Scientific). Confocal images were obtained using a Leica TCS SPE laser scanning confocal microscope.
(A) High power magnification immunofluorescence confocal images of HeLa cells expressing TDP-4FL stained for myc-TDP (green) Scale bar, 5 µm. […]
(C) Representative confocal microscopy immunofluorescence confocal images of HeLa cells […]
yellow represent cells that were categorized as anisosome morphology. Nuclei outline in white represent cells that were categorized as aggregate morphology. Cells with approximately more than 50% anisosome inclusions were categorized as anisosome morphology whereas cells with approximately more than 50% aggregate-like inclusions were categorized as aggregate morphology. Binucleate cells were excluded from the total counts. Scale bar, 10 µm.
(1 picture or pasted object on this page, not shown here)

luciferase = assay: Luciferase counter assay: Kinase-Glo with 62.5 μM ATP without recombinant VCP; format: biochemical; conditions: for measured ATP consumed (nmol) without VCP: replicate values
Method in brief: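 Counter-screen with no recombinant VCP: 62.5 μM ATP and rising compound concentrations in ATPase buffer (25 mM HEPES pH 7.5, 100 mM NaCl, 10 mM MgCl2, 2% DMSO), 1 h at 25°C. Remaining ATP was read as Kinase-Glo luminescence after 20 min at room temperature; n=3, linear mixed effects model.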

A232E VCP = molecular target: T2, A232E VCP (Mus musculus, UniProt Q01853, A232E); assay: MESG-PNP ATPase assay, recombinant A232E VCP; format: biochemical
T2 construct: in the full-length recombinant VCP; His (N); made in house; host or cells: Escherichia coli BL21-CodonPlus (DE3)-RIL
Method in brief: (§1)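 Phosphate release (MESG-PNP, A360) from 50 nM recombinant mouse VCP mutant, with 25 μM compound versus 2% DMSO, at 1mM ATP. Read >15 min at 25°C, quantified against a phosphate standard curve; initial velocity from linear fit of the linear portion.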

R155H VCP = molecular target: T3, R155H VCP (Mus musculus, UniProt Q01853, R155H); assay: MESG-PNP ATPase assay, recombinant R155H VCP; format: biochemical
T3 construct: in the full-length recombinant VCP; His (N); made in house; host or cells: Escherichia coli BL21-CodonPlus (DE3)-RIL
Method in brief: as §1

R159H VCP = molecular target: T4, R159H VCP (Mus musculus, UniProt Q01853, R159H); assay: MESG-PNP ATPase assay, recombinant R159H VCP; format: biochemical
T4 construct: in the full-length recombinant VCP; His (N); made in house; host or cells: Escherichia coli BL21-CodonPlus (DE3)-RIL
Method in brief: as §1

[5] = 25 μM compound, 1 mM ATP, 50 nM VCP

T1 sequence (Q01853 whole entry): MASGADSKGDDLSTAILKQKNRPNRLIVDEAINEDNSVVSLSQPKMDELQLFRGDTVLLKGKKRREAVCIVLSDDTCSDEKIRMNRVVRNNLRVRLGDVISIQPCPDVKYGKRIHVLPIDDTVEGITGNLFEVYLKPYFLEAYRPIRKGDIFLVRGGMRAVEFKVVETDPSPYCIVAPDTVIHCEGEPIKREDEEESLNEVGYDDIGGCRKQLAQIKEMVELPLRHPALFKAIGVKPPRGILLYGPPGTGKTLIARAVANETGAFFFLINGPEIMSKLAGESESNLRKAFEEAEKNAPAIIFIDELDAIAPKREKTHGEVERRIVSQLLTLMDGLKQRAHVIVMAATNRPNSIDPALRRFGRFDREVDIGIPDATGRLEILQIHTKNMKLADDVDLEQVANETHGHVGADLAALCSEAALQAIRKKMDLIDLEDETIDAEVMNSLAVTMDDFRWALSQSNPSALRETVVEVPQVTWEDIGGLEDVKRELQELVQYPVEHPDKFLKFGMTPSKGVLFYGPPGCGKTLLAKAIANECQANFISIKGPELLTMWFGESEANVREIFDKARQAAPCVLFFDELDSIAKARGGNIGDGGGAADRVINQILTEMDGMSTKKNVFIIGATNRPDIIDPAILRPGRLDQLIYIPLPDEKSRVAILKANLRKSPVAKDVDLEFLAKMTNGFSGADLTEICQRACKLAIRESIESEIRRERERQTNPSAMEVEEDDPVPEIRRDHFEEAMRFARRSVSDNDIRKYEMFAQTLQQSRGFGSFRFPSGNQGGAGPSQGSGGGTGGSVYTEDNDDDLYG
T2 sequence (Q01853 whole entry A232E): as the sequence (Q01853 whole entry) above, with A232E counted along it
T4 sequence (Q01853 whole entry R159H): as the sequence (Q01853 whole entry) above, with R159H counted along it
T3 sequence (Q01853 whole entry R155H): as the sequence (Q01853 whole entry) above, with R155H counted along it

SMILES: COCCNC(=O)NC(=O)COC(=O)c1cc([N+](=O)[O-])ccc1Sc1nc(C)cs1 [UP109]
- EC50 (recombinant WT VCP [1]; EC50 (μM) (95% CI), WT VCP without UN, 50 nM VCP, 62.5 μM ATP, 2% DMSO): 24.7 µM
- ATP consumed (recombinant WT VCP [1]; 1.56 μM compound): 0.864 nmol and 1.057 nmol and 1.000 nmol
- ATP consumed (recombinant WT VCP [1]; 3.13 μM compound): 1.129 nmol and 1.166 nmol and 1.237 nmol
- ATP consumed (recombinant WT VCP [1]; 6.25 μM compound): 1.129 nmol and 1.374 nmol and 1.469 nmol
- ATP consumed (recombinant WT VCP [1]; 12.5 μM compound): 1.453 nmol and 1.583 nmol and 1.518 nmol
- ATP consumed (recombinant WT VCP [1]; 25 μM compound): 1.644 nmol and 1.860 nmol and 1.582 nmol
- ATP consumed (recombinant WT VCP [1]; 50 μM compound): 1.793 nmol and 1.914 nmol and 2.036 nmol
- ATP consumed (recombinant WT VCP [1]; 100 μM compound): 1.926 nmol and 2.030 nmol and 2.160 nmol
- ATP consumed (recombinant WT VCP [1]; 200 μM compound): 2.051 nmol and 2.217 nmol and 2.241 nmol
- recombinant WT VCP ATPase activity (recombinant WT VCP [1]; in vitro validation of 106 screen hits): significantly increased
- increase of VCP activity (recombinant WT VCP [1]; maximum, WT VCP without UN): 97%
- decrease in KM compared with DMSO (recombinant WT VCP [2]; 25 μM activator): more than 2 fold
- kcat (nmol Pi / nmol VCP / s) (95% CI) (recombinant WT VCP [2]; 25 μM activator): 0.489 (0.459, 0.520) nmol Pi / nmol VCP / s
- increase in catalytic efficiency (kcat/KM) (recombinant WT VCP [2]; 25 μM activator, versus DMSO): > 4 fold
- increase in kcat (recombinant WT VCP [2]; 25 μM activator, versus DMSO): 100%
- ATPase activity v0/ET (recombinant WT VCP [2]; [ATP] 62.5 μM): 0.302 nmol Pi / nmol VCP / s and 0.325 nmol Pi / nmol VCP / s and 0.308 nmol Pi / nmol VCP / s
- ATPase activity v0/ET (recombinant WT VCP [2]; [ATP] 125 μM): 0.374 nmol Pi / nmol VCP / s and 0.402 nmol Pi / nmol VCP / s and 0.380 nmol Pi / nmol VCP / s
- ATPase activity v0/ET (recombinant WT VCP [2]; [ATP] 250 μM): 0.403 nmol Pi / nmol VCP / s and 0.414 nmol Pi / nmol VCP / s and 0.420 nmol Pi / nmol VCP / s
- ATPase activity v0/ET (recombinant WT VCP [2]; [ATP] 500 μM): 0.423 nmol Pi / nmol VCP / s and 0.468 nmol Pi / nmol VCP / s and 0.467 nmol Pi / nmol VCP / s
- ATPase activity v0/ET (recombinant WT VCP [2]; [ATP] 1000 μM): 0.455 nmol Pi / nmol VCP / s and 0.493 nmol Pi / nmol VCP / s and 0.498 nmol Pi / nmol VCP / s
- Integrated Fluorescence WT (Normalized to CHX) ([3]; 5μM compound with CHX): 1.011 and 0.958 and 1.026 and 0.960 and 0.926 and 0.822 and 0.883 and 0.671
- Integrated Fluorescence WT (Normalized to CHX) ([3]; 20μM compound with CHX): 0.950 and 0.938 and 0.974 and 0.870 and 0.844 and 0.840 and 0.850 and 0.749
- clearance of GFP-TDP-4FL aggregates (integrated fluorescence) ([3]; MG132, then CHX with 5 or 20 μM activator): enhances clearance of TDP-4FL inclusions
- TDP-4FL aggregate morphology [4]: appeared to be smaller and in some cases revert to small anisosomes
- luciferase activity (measured ATP without VCP) (luciferase; 62.5 μM ATP, increasing concentrations of compound): did not inhibit luciferase activity
- measured ATP consumed (nmol) without VCP (luciferase; compound 6.25 μM): 3.224 nmol and 3.481 nmol and 3.557 nmol and 3.618 nmol and 3.348 nmol and 3.306 nmol and 3.280 nmol and 3.059 nmol and 3.211 nmol and 3.590 nmol and 3.249 nmol and 3.229 nmol
- measured ATP consumed (nmol) without VCP (luciferase; compound 12.5 μM): 3.275 nmol and 3.593 nmol and 3.611 nmol and 3.469 nmol and 3.221 nmol and 3.387 nmol and 3.414 nmol and 3.086 nmol and 3.141 nmol and 3.174 nmol and 3.231 nmol and 3.422 nmol
- measured ATP consumed (nmol) without VCP (luciferase; compound 25 μM): 3.285 nmol and 3.476 nmol and 3.450 nmol and 3.355 nmol and 3.220 nmol and 3.354 nmol and 3.314 nmol and 3.030 nmol and 3.217 nmol and 3.388 nmol and 3.578 nmol and 3.396 nmol
- measured ATP consumed (nmol) without VCP (luciferase; compound 50 μM): 3.335 nmol and 3.348 nmol and 3.307 nmol and 3.386 nmol and 3.228 nmol and 2.949 nmol and 3.054 nmol and 3.211 nmol and 3.367 nmol and 3.287 nmol and 3.322 nmol
- measured ATP consumed (nmol) without VCP (luciferase; compound 100 μM): 3.258 nmol and 3.303 nmol and 3.325 nmol and 3.212 nmol and 3.287 nmol and 3.191 nmol and 3.396 nmol and 3.257 nmol and 3.381 nmol and 3.296 nmol
- measured ATP consumed (nmol) without VCP (luciferase; compound 200 μM): 3.338 nmol and 3.532 nmol and 3.360 nmol and 3.185 nmol and 3.242 nmol and 2.772 nmol and 3.166 nmol and 3.261 nmol and 3.507 nmol and 3.171 nmol and 3.672 nmol
- ATPase activity of A232E VCP (A232E VCP; [5]): increases ATPase activity
- ATPase activity, nmol Pi / nmol VCP / s (A232E VCP; VCP Mutation A232E, replicate values): 1.176 nmol Pi / nmol VCP / s and 1.282 nmol Pi / nmol VCP / s and 1.456 nmol Pi / nmol VCP / s
- ATPase activity of R155H VCP (R155H VCP; [5]): increases ATPase activity
- ATPase activity, nmol Pi / nmol VCP / s (R155H VCP; VCP Mutation R155H, replicate values): 1.058 nmol Pi / nmol VCP / s and 1.110 nmol Pi / nmol VCP / s and 1.179 nmol Pi / nmol VCP / s
- ATPase activity of R159H VCP (R159H VCP; [5]): increases ATPase activity
- ATPase activity, nmol Pi / nmol VCP / s (R159H VCP; VCP Mutation R159H, replicate values): 1.124 nmol Pi / nmol VCP / s and 1.212 nmol Pi / nmol VCP / s and 1.056 nmol Pi / nmol VCP / s
